Each block holds one molecule with its values, some of them ahead of it.
Key:
PASK [1] = target: PASK (UniProt # Q96RG2; human recombinant N-terminal GST tagged construct, residues 879-1323) (Homo sapiens (Human), UniProt Q96RG2); experiment: PASK ATP Radiochemical Assay; assay type: biochemical; details: 33P-ATP radiochemical, Myelin Basic Protein substrate; read-out: IC50 Kinase Domain
Description: PASK ATP Radiochemical Assay
Test compounds in DMSO are then added and the mixture, followed by delivery of ^33P-ATP (specific activity 0.01 μCi/μl final) to initiate the reaction. […] The entire reaction mixture is washed through onto a P81 Phosphocellulose paper and washed three times for 10 minutes in 75 mM phosphoric acid and once in methanol prior to drying and scintillation counting.

PASK [2] = target: PASK (Homo sapiens (Human), UniProt Q96RG2); experiment: PAS Kinase FRET Assay; assay type: biochemical; details: TR-FRET, Ulight-peptide substrate; read-out: IC50 Kinase Domain
Source text: PAS Kinase FRET Assay The aim of the FRET assay is to determine the inhibition potential of test compounds on targeted kinase. This assay platform provides a homogenous screening method for measuring kinase activity by quantitating the amount of phospho-substrate in solution following a kinase reaction. In the presence of kinase and ATP, the Ulight-peptide is phosphorylated and captured by an anti-phospho-substrate antibody, which brings the Eu chelate donor and Ulight acceptor dyes into close proximity. […] The contents of the plate were and incubated at RT for 1 h. The reaction was stopped by adding 5 μl of stop solution to each test well followed by mixing and incubation at RT for 10 minutes. 5 μl of detection mix (detection antibody diluted in detection buffer) was added; the contents of the plate were mixed and then incubated in the dark for 1 hour at RT. […] The results were graphed to calculate the EC50. Titration of ATP at the EC50 concentration of kinase to determine ATP Km,app. was performed using the following method. […] The contents of the plate were and incubated at RT for 1 h. The reaction was stopped by adding 5 μl of stop solution to each test well followed by mixing and incubation at RT for 10 minutes. 5 μl of detection mix (detection antibody diluted in detection buffer) was added; the contents of the plate were mixed and then incubated in the dark for 1 hour at RT. […] The results were graphed to calculate the EC50 as the ATP Km,app. […] If compound is not soluble under this condition, it was diluted to 3 mM. Kinase reaction buffer was prepared containing 10 mM MgCl2, 50 mM HEPES, 1 mM EGTA, 0.01% TWEEN-20, 2 mM DTT. […] As a positive control, 2.5 μl of positive compound was added to assay wells, and 2.5 μl of DMSO to assay wells as vehicle control. Kinase solution was prepared in reaction buffer at 2× final assay concentration. Kinase solution (5 μl) was added to each well of the assay plate. The substrate and ATP solution was prepared in kinase reaction buffer at 4× final assay concentration. The kinase reaction was started by adding 2.5 μl of substrate+ATP mix solution to each well of the assay plate. The plate is mixed on a plate shaker; then covered and allowed to react for 2 hours in the dark at 25° C. without shaking. The reaction was stopped by adding 5 μl of stop solution to each test well followed by mixing and incubation at RT for 10 minutes in the dark. 5 μl of detection mix (detection antibody diluted in detection buffer) was added; the contents of the plate were mixed and then incubated in the dark for 1 hour at RT.

[3] = tested on: C57Bl6 mice fed a high fat diet; experiment: Mouse High Fat Dietary Model with fast/re-feed; assay type: in vivo; details: for reduction in body weight vs vehicle: fast/re-feed mice
Description: Mouse High Fat Dietary Model
A standard model of human hyperlipidemia and insulin resistance is the mouse fed a high fat diet for several weeks (31, 33). Additionally, since hepatic lipid synthesis is known to be regulated by food consumption, the fast/re-feed cycle of Horton et al. (32) was incorporated into the chronic high fat diet model. The compound was evaluated in this model as an agent to restore insulin sensitivity and lower blood lipids. The chronic high fat diet was fed to mice to simulate a standard Western diet which is elevated in calories from high fat and carbohydrate intake. This and similar models of dietary induced obesity, insulin insensitivity and elevated serum lipids and cholesterol are used as mouse and rat models of human pathology including hyperlipidemia, type II diabetes, atherosclerosis, obesity, cardiovascular and liver disease. These models have been used as excellent predictors of efficacy in human clinical trials (PPAR and FXR agonists).
The farnesoid X receptor (FXR) is a ligand-activated transcription factor and a member of the nuclear receptor superfamily. […] While the mechanism of action of FXR agonists is clearly distinct from PASK inhibition, WAY-362450 has been used as a positive control compound producing physiologically beneficial changes in glucose and lipid metabolism resembling inhibition of PASK. Throughout these in vivo assays, WAY-362450 has been used as a control compound, and will be referred to as such.
Male C57Bl6 mice were obtained from Jackson Laboratories and had been fed a high fat diet (60% kcal fat) for eight weeks. The mice were fed an identical high fat diet (Research Diet D12492) upon arrival and during the study. All mice were treated with the subject compound at 30 or 100 mg/kg, control compound (WAY-362450) at 30 mg/kg or vehicle by oral gavage daily for three days. On the final day, 10 animals from each group began an 24 hour fast and then were sacrificed (fasted groups 1a,2a,3a,4a). Alternatively, 10 animals from each group underwent a 24 hour fast followed by a 12 hour re-feed period with the same high fat diet ad libitum and then were sacrificed (re-fed groups 1b,2b,3b,4b).
(§1) Body weights were monitored at the start and end of the protocol. After completing the fast or fast/re-feed conditions, the mice were given avertin for anesthesia by intraperitoneal administration. Whole blood was collected by cardiac puncture and the mice were terminated by cervical dislocation. Livers were collected surgically, weighed and immediately frozen in liquid nitrogen. The blood was placed in Li-heparin treated tubes, centrifuged to collect plasma and the plasma frozen.
The plasma was analyzed by standard colorimetric assays for glucose, insulin, triglycerides and cholesterol. Frozen liver samples were pulverized and extracted in ethanolic KOH and analyzed for liver triglycerides and cholesterol.

[4] = tested on: Sprague Dawley rats on a high fructose diet; experiment: Rat High Fructose Model with Fast/Re-Feed; assay type: in vivo; details: for body weight change relative to the Vehicle group: FIG. 1; for decrease in plasma glucose compared to vehicle / reduction in plasma insulin levels: after fast and re-feed
Description: Rat High Fructose Model with Fast/Re-Feed
Another standard model of human hyperlipidemia and insulin resistance is the rat fed a high fructose diet for several weeks (33). Additionally, since hepatic lipid synthesis is known to be regulated by food consumption, the fast/reefed cycle of Horton et al. (32) was incorporated into the chronic high fructose diet model. A compound disclosed above was evaluated in this model as an agent to restore insulin sensitivity and lower blood lipids.
Eight week old male Sprague Dawley rats were purchased from Harlan, Inc. The rats weighed 200-225 g upon arrival and were divided into groups as detailed in Table 2 and were immediately placed on a high fructose diet (60% kcal fructose; Open Source Diet # D00111301) ad libitum for three weeks. During the last week of feeding the high fructose diet, the rats were dosed with vehicle (5% solutol, 8% β cyclo-dextrin), subject compound at 30 mg/kg or 100 mg/kg or the control compound at 30 mg/kg by oral gavage once daily for 7 days. On the final day, all animals were placed on a […] followed by a 12 hour re-feed period on the high fructose diet ad libitum.
as §1, with “throughout” for “at the start and end of”, “rats” for “mice”
The plasma was analyzed by standard colorimetric assays for glucose, insulin, triglycerides and cholesterol.

[5] = 30 mg/kg oral gavage daily for three days
[6] = fasted and re-fed mice, 30 mg/kg
[7] = fasted only mice, 30 mg/kg oral gavage daily for three days
[8] = 30 mg/kg oral gavage once daily for 7 days

PASK (UniProt # Q96RG2; human recombinant N-terminal GST tagged construct, residues 879-1323) (Homo sapiens (Human), UniProt Q96RG2), sequence (Q96RG2 879-1323, change not shown): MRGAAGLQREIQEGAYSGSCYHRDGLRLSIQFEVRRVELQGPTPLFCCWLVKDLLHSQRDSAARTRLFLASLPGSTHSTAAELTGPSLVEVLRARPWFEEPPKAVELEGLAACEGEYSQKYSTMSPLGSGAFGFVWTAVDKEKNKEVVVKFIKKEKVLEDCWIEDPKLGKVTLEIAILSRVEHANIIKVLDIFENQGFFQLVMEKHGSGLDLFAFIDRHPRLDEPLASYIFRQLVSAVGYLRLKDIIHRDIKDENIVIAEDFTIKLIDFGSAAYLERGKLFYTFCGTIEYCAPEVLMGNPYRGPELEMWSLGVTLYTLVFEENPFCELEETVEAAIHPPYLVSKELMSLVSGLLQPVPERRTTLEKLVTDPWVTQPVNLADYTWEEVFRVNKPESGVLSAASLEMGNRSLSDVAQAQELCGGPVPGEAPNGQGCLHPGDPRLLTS
PASK (Homo sapiens (Human), UniProt Q96RG2), sequence (Q96RG2 999-1251): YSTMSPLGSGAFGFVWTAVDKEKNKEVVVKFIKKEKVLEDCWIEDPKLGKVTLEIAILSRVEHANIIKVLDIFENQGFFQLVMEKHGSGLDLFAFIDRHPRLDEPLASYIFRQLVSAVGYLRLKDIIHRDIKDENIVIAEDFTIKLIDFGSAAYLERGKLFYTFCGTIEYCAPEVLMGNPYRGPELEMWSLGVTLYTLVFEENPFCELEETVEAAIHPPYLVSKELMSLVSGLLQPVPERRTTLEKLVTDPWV

IC50 (PASK [1]): < 10 µM | IC50 (PASK [2]): ≤ 10 µM
Structure (SMILES): O=C(O)c1ccc2nc(-c3ccccc3)c(N3CCC[C@@H]3C(F)(F)F)nc2c1 [Example 65, (R)-2-Phenyl-3-(2-(trifluoromethyl)pyrrolidin-1-yl)quinoxaline-6-carboxylic acid]

IC50 (PASK [1]): < 10 µM | IC50 (PASK [2]): ≤ 10 µM
Structure (SMILES): CC(C)N(C)c1nc2cc(C(=O)O)ccc2nc1-c1ccc(F)cc1 [Example 57, 2-(4-Fluorophenyl)-3-(isopropyl(methyl)amino)quinoxaline-6-carboxylic acid]

Structure (SMILES): CC(C)OC(=O)C1=CN(C(=O)c2ccc(F)c(F)c2)CC(C)(C)c2c1[nH]c1ccccc21 [WAY-362450, reference compound]
effects on liver weight ([3]; 30 mg/kg): identical to those of the subject compound at the same dose | increase in plasma glucose vs vehicle ([3]; fast and re-feed mice, 30 mg/kg): 7.6% | reduction in body weight vs vehicle [3, 5]: 6.5% | decrease in plasma insulin vs vehicle [3, 6]: 22% | decrease in plasma glucose vs vehicle ([3]; fasted only mice, 30 mg/kg): 19% | decrease in plasma insulin vs vehicle ([3]; fasted only mice, 30 mg/kg): 39% | decrease in body weight vs vehicle [3, 7]: 4% | body weight change relative to the Vehicle group [4, 8]: significant increase in body weight | increase in plasma cholesterol vs vehicle ([4]; 30 mg/kg, 7 days): 17% | reduction in plasma triglycerides vs vehicle ([4]; 30 mg/kg, 7 days): 68% | decrease in plasma glucose compared to vehicle ([4]; 30 mg/kg, 7 days): did not alter plasma glucose concentrations | reduction in plasma insulin levels ([4]; 30 mg/kg, 7 days): 63.2%

IC50 (PASK [1]): < 10 µM | IC50 (PASK [2]): ≤ 10 µM
Structure (SMILES): C[C@H]1CCCN1c1nc2cc(C(=O)O)ccc2nc1-c1ccc2c(c1)OCO2 [Example 83, 2-(Benzo[d][1,3]dioxol-5-yl)-3-((S)-2-methylpyrrolidin-1-yl)quinoxaline-6-carboxylic acid]

IC50 (PASK [1]): < 10 µM | IC50 (PASK [2]): ≤ 10 µM
Structure (SMILES): O=C(O)c1ccc2nc(-c3ccc(F)cc3)c(N3CCCCC3)nc2c1 [Example 75, 2-(4-Fluorophenyl)-3-(piperidin-1-yl)quinoxaline-6-carboxylic acid]

IC50 (PASK [1]): < 10 µM | IC50 (PASK [2]): ≤ 10 µM
Structure (SMILES): O=C(O)c1ccc2nc(-c3ccccc3)c(N3CCC[C@@H]3CO)nc2c1 [Example 52, (R)-3-(2-(Hydroxymethyl)pyrrolidin-1-yl)-2-phenylquinoxaline-6-carboxylic acid]

IC50 (PASK [1]): < 10 µM | IC50 (PASK [2]): ≤ 10 µM
Structure (SMILES): COC[C@H]1CCCN1c1nc2cc(C(=O)O)ccc2nc1-c1ccccc1 [Example 51, (R)-3-(2-(Methoxymethyl)pyrrolidin-1-yl)-2-phenylquinoxaline-6-carboxylic acid]

Structure (SMILES): COc1ccc(-c2nc3ccc(C(=O)O)cc3nc2N(C)C(C)C)cc1 [Example 58, 3-(Isopropyl(methyl)amino)-2-(4-methoxyphenyl)quinoxaline-6-carboxylic acid]
IC50 (PASK [1]): < 10 µM | IC50 (PASK [2]): ≤ 10 µM

IC50 (PASK [1]): < 10 µM | IC50 (PASK [2]): ≤ 10 µM
Structure (SMILES): CC(C)N(C)c1nc2cc(C(=O)O)ccc2nc1-c1ccccc1 [Example 43, 3-(Isopropyl(methyl)amino)-2-phenylquinoxaline-6-carboxylic acid]

Structure (SMILES): CC(C)N(C)c1nc2cc(C(=O)O)ccc2nc1-c1ccc(F)cc1 [subject compound]
reduction in liver weight ([3]; 30 and 100 mg/kg, trend of dose dependent reductions): 7-9% | decrease in plasma glucose vs vehicle ([3]; fast and re-feed mice, highest dose 100 mg/kg): up to 21% | reduction in body weight vs vehicle [3, 5]: 2.7% | reduction in body weight vs vehicle ([3]; 100 mg/kg oral gavage daily for three days): 5.1% | decrease in plasma insulin vs vehicle [3, 6]: 10% | decrease in plasma insulin vs vehicle ([3]; fasted and re-fed mice, 100 mg/kg): 28% | decrease in plasma glucose vs vehicle ([3]; fasted only mice, 30 mg/kg): 30% | decrease in body weight vs vehicle [3, 7]: 1.8% | decrease in plasma glucose vs vehicle ([3]; fasted only mice, 100 mg/kg): 43% | decrease in body weight vs vehicle ([3]; fasted only mice, 100 mg/kg oral gavage daily for three days): 5.1% | decrease in plasma insulin vs vehicle ([3]; fasted only mice, 30 and 100 mg/kg): up to 26% | body weight change relative to the Vehicle group [4, 8]: modest increase in body weight | decrease in plasma cholesterol vs vehicle ([4]; 30 mg/kg, 7 days): 5.7% | reduction in plasma triglycerides vs vehicle ([4]; 30 mg/kg, 7 days): 25.1% | decrease in plasma glucose compared to vehicle ([4]; 30 mg/kg, 7 days): 21.5% | reduction in plasma insulin levels ([4]; 30 mg/kg, 7 days): 15.4% | body weight change relative to the Vehicle group ([4]; 100 mg/kg oral gavage once daily for 7 days): modest decrease in body weight | decrease in plasma cholesterol vs vehicle ([4]; 100 mg/kg, 7 days): 10% | maximal reduction in liver weight ([4]; 100 mg/kg, 7 days): about 4% | reduction in plasma triglycerides vs vehicle ([4]; 100 mg/kg, 7 days): 54.3% | decrease in plasma glucose compared to vehicle ([4]; 100 mg/kg, 7 days): 26.3% | reduction in plasma insulin levels ([4]; 100 mg/kg, 7 days): 31.4%

From patent publication US10781185B2, “Heterocyclic compounds for the inhibition of PASK” (BioEnergenix LLC, priority 2009, dated 2020)
